pIC50: −log10 of the molar value.
Test system: NCI-H196 complex spheroid growth, percent test/control
Experiment: Anticancer human tumor NCI-H196 cell line growth inhibition [AhR];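 further: seven days of drug exposure starting three days after plating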;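 on viability, T/C: 100% = DMSO vehicle control wells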
Conditions: for pIC50: curve of first compound; for viability, T/C: stronger effect = lower value
Summary of the method: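 Complex tumor spheroids co-cultured with HUVEC and human MSC stroma; AhR antagonists tested in combination with standard-of-care and investigational agents. Top concentration at or near clinical Cmax (else 10 microM), half-log dilutions; growth expressed as percent test/control.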

[1] = second compound 0.1 µM, first compound 0.00949 µM
[2] = second compound 0.1 µM, first compound 0.03 µM
[3] = second compound 0.1 µM, first compound 0.0949 µM
[4] = second compound 0.1 µM, first compound 0.3 µM
[5] = second compound 0.1 µM, first compound 0.949 µM
[6] = second compound 0.1 µM, first compound 3 µM
[7] = second compound 0.316 µM, first compound 0.00949 µM
[8] = second compound 0.316 µM, first compound 0.03 µM
[9] = second compound 0.316 µM, first compound 0.0949 µM
[10] = second compound 0.316 µM, first compound 0.3 µM
[11] = second compound 0.316 µM, first compound 0.949 µM
[12] = second compound 0.316 µM, first compound 3 µM
[13] = second compound 1 µM, first compound 0.00949 µM
[14] = second compound 1 µM, first compound 0.03 µM
[15] = second compound 1 µM, first compound 0.0949 µM
[16] = second compound 1 µM, first compound 0.3 µM
[17] = second compound 1 µM, first compound 0.949 µM
[18] = second compound 1 µM, first compound 3 µM
[19] = second compound 3.16 µM, first compound 0.00949 µM
[20] = second compound 3.16 µM, first compound 0.03 µM
[21] = second compound 3.16 µM, first compound 0.0949 µM
[22] = second compound 3.16 µM, first compound 0.3 µM
[23] = second compound 3.16 µM, first compound 0.949 µM
[24] = second compound 3.16 µM, first compound 3 µM
[25] = second compound 10 µM, first compound 0.00949 µM
[26] = second compound 10 µM, first compound 0.03 µM
[27] = second compound 10 µM, first compound 0.0949 µM
[28] = second compound 10 µM, first compound 0.3 µM
[29] = second compound 10 µM, first compound 0.949 µM
[30] = second compound 10 µM, first compound 3 µM

CC1COCCN1c1cc(C2(S(C)(=N)=O)CC2)nc(-c2ccnc3[nH]ccc23)n1 (stereo not given) + Cc1ccccc1N=Nc1ccc(NC(=O)c2ccnn2C)c(C)c1
pIC50 (second compound 0.1 µM): < 5.00
pIC50 (second compound 0.316 µM): < 5.00
pIC50 (second compound 1 µM): < 5.00
pIC50 (second compound 3.16 µM): < 5.00
pIC50 (second compound 10 µM): < 5.00
viability, T/C (second compound 0.1 µM, first compound 0.0316 µM): 98.5%
viability, T/C (second compound 0.1 µM, first compound 0.1 µM): 101%
viability, T/C (second compound 0.1 µM, first compound 0.316 µM): 98.8%
viability, T/C (second compound 0.1 µM, first compound 1 µM): 101%
viability, T/C (second compound 0.1 µM, first compound 3.16 µM): 81.5%
viability, T/C (second compound 0.1 µM, first compound 10 µM): 69.7%
viability, T/C (second compound 0.316 µM, first compound 0.0316 µM): 99.3%
viability, T/C (second compound 0.316 µM, first compound 0.1 µM): 102%
viability, T/C (second compound 0.316 µM, first compound 0.316 µM): 99.2%
viability, T/C (second compound 0.316 µM, first compound 1 µM): 92.5%
viability, T/C (second compound 0.316 µM, first compound 3.16 µM): 80.5%
viability, T/C (second compound 0.316 µM, first compound 10 µM): 72.6%
viability, T/C (second compound 1 µM, first compound 0.0316 µM): 96.3%
viability, T/C (second compound 1 µM, first compound 0.1 µM): 104%
viability, T/C (second compound 1 µM, first compound 0.316 µM): 101%
viability, T/C (second compound 1 µM, first compound 1 µM): 94%
viability, T/C (second compound 1 µM, first compound 3.16 µM): 87.7%
viability, T/C (second compound 1 µM, first compound 10 µM): 70%
viability, T/C (second compound 3.16 µM, first compound 0.0316 µM): 96.2%
viability, T/C (second compound 3.16 µM, first compound 0.1 µM): 99.1%
viability, T/C (second compound 3.16 µM, first compound 0.316 µM): 97.4%
viability, T/C (second compound 3.16 µM, first compound 1 µM): 88.6%
viability, T/C (second compound 3.16 µM, first compound 3.16 µM): 81.8%
viability, T/C (second compound 3.16 µM, first compound 10 µM): 74%
viability, T/C (second compound 10 µM, first compound 0.0316 µM): 85.7%
viability, T/C (second compound 10 µM, first compound 0.1 µM): 93.1%
viability, T/C (second compound 10 µM, first compound 0.316 µM): 101%
viability, T/C (second compound 10 µM, first compound 1 µM): 89.7%
viability, T/C (second compound 10 µM, first compound 3.16 µM): 78.3%
viability, T/C (second compound 10 µM, first compound 10 µM): 76.6%

CCN(c1cc(-c2ccc(CN3CCOCC3)cc2)cc(C(=O)NCc2c(C)cc(C)[nH]c2=O)c1C)C1CCOCC1 + Cc1ccccc1N=Nc1ccc(NC(=O)c2ccnn2C)c(C)c1
pIC50 (second compound 0.1 µM): < 5.52
pIC50 (second compound 0.316 µM): < 5.52
pIC50 (second compound 1 µM): < 5.52
pIC50 (second compound 3.16 µM): < 5.52
pIC50 (second compound 10 µM): < 5.52
viability, T/C [1]: 95%
viability, T/C [2]: 104%
viability, T/C [3]: 103%
viability, T/C [4]: 104%
viability, T/C [5]: 90.2%
viability, T/C [6]: 89.6%
viability, T/C [7]: 104%
viability, T/C [8]: 99.2%
viability, T/C [9]: 102%
viability, T/C [10]: 97.3%
viability, T/C [11]: 94.7%
viability, T/C [12]: 96.3%
viability, T/C [13]: 98.6%
viability, T/C [14]: 98.1%
viability, T/C [15]: 111%
viability, T/C [16]: 103%
viability, T/C [17]: 101%
viability, T/C [18]: 107%
viability, T/C [19]: 93%
viability, T/C [20]: 103%
viability, T/C [21]: 105%
viability, T/C [22]: 98.1%
viability, T/C [23]: 93.2%
viability, T/C [24]: 96.3%
viability, T/C [25]: 89.9%
viability, T/C [26]: 97.8%
viability, T/C [27]: 92.9%
viability, T/C [28]: 89.7%
viability, T/C [29]: 90.1%
viability, T/C [30]: 102%

Nc1ncn(C2CC(O)C(CO)S2)c(=O)n1 (stereo not given) + Cc1ccccc1N=Nc1ccc(NC(=O)c2ccnn2C)c(C)c1
pIC50 (second compound 0.1 µM): < 6.52
pIC50 (second compound 0.316 µM): < 6.52
pIC50 (second compound 1 µM): < 6.52
pIC50 (second compound 3.16 µM): < 6.52
pIC50 (second compound 10 µM): < 6.52
viability, T/C (second compound 0.1 µM, first compound 0.000949 µM): 95%
viability, T/C (second compound 0.1 µM, first compound 0.003 µM): 93.4%
viability, T/C [1]: 99.1%
viability, T/C [2]: 96.8%
viability, T/C [3]: 102%
viability, T/C [4]: 101%
viability, T/C (second compound 0.316 µM, first compound 0.000949 µM): 105%
viability, T/C (second compound 0.316 µM, first compound 0.003 µM): 96.2%
viability, T/C [7]: 104%
viability, T/C [8]: 96%
viability, T/C [9]: 101%
viability, T/C [10]: 95.4%
viability, T/C (second compound 1 µM, first compound 0.000949 µM): 97.6%
viability, T/C (second compound 1 µM, first compound 0.003 µM): 89.9%
viability, T/C [13]: 97.9%
viability, T/C [14]: 87.3%
viability, T/C [15]: 91%
viability, T/C [16]: 104%
viability, T/C (second compound 3.16 µM, first compound 0.000949 µM): 89.3%
viability, T/C (second compound 3.16 µM, first compound 0.003 µM): 102%
viability, T/C [19]: 100%
viability, T/C [20]: 93.7%
viability, T/C [21]: 97.7%
viability, T/C [22]: 99.5%
viability, T/C (second compound 10 µM, first compound 0.000949 µM): 85.1%
viability, T/C (second compound 10 µM, first compound 0.003 µM): 82.4%
viability, T/C [25]: 86.2%
viability, T/C [26]: 86.2%
viability, T/C [27]: 90.5%
viability, T/C [28]: 92.1%

O=C(C=Cn1cnc(-c2cc(C(F)(F)F)cc(C(F)(F)F)c2)n1)NNc1cnccn1 + Cc1ccccc1N=Nc1ccc(NC(=O)c2ccnn2C)c(C)c1
pIC50 (second compound 0.1 µM): 7.48
pIC50 (second compound 0.316 µM): 7.44
pIC50 (second compound 1 µM): 7.46
pIC50 (second compound 3.16 µM): 7.45
pIC50 (second compound 10 µM): 7.38
viability, T/C [1]: 71.3%
viability, T/C [2]: 54.5%
viability, T/C [3]: 6.66%
viability, T/C [4]: 6.81%
viability, T/C [5]: 5.42%
viability, T/C [6]: 7.76%
viability, T/C [7]: 72.7%
viability, T/C [8]: 58.6%
viability, T/C [9]: 8.61%
viability, T/C [10]: 5.66%
viability, T/C [11]: 6.01%
viability, T/C [12]: 6.07%
viability, T/C [13]: 79.8%
viability, T/C [14]: 56%
viability, T/C [15]: 9.47%
viability, T/C [16]: 5.55%
viability, T/C [17]: 8.58%
viability, T/C [18]: 8.52%
viability, T/C [19]: 68.4%
viability, T/C [20]: 56.8%
viability, T/C [21]: 9.86%
viability, T/C [22]: 4.79%
viability, T/C [23]: 7.89%
viability, T/C [24]: 8.09%
viability, T/C [25]: 74.6%
viability, T/C [26]: 64%
viability, T/C [27]: 13.8%
viability, T/C [28]: 10.6%
viability, T/C [29]: 8.84%
viability, T/C [30]: 12.8%

Source: PubChem BioAssay AID1919016 (Molecular Pharmacology Branch, DTP, NCI, 2023)
